From patent US20230413820A1, “HERBICIDAL N-HETEROARYL PYRAZOLE COMPOUNDS” (SYNGENTA CROP PROTECTION AG, priority 2020, published 2023) come the findings set out here.

SMILES strings stand for the structures.

What all share (assay type): in vivo
The subject of test [1] is Abutilon theophrasti (ABUTH). The experiment in a line: Pre-emergence herbicide glasshouse test. Conditions: 250 g/ha, sprayed after one day cultivation, evaluated after 13 days. As for the experimental part: (§1) Seeds of a variety of test species (Abutilon theophrasti (ABUTH), Amaranthus retoflexus (AMARE), Echinochloa crus-galli (ECHCG), Ipomoea hederacea (IPOHE), Setaria faberi (SETFA)) are sown in standard soil in pots. After cultivation for one day (pre-emergence) or after 8 days cultivation (post-emergence) under controlled conditions in a glasshouse (at 24/16° C., day/night; 14 hours light; 65% humidity), the plants are sprayed with an aqueous spray solution derived from the formulation of the technical active ingredient in acetone/water (50:50) solution containing 0.5% Tween 20 (polyoxyethelyene sorbitan monolaurate, CAS RN 9005-64-5). Compounds are applied at 250 g/ha unless otherwise stated. The test plants are then grown in a glasshouse under controlled conditions in a glasshouse (at 24/16° C., day/night; 14 hours light; 65% humidity) and watered twice daily. After 13 days for pre- and post-emergence, the test is evaluated for the percentage damage caused to the plant. The biological activities are shown in the following table on a five-point scale (5=81-100%; 4=61-80%; 3=41-60%; 2=21-40%; 1=0-20%).

The test system of test [2] is Amaranthus retoflexus (AMARE). Description: Pre-emergence herbicide glasshouse test. The settings on record: 250 g/ha, sprayed after one day cultivation, evaluated after 13 days. As for the experimental part: as §1
Test [3] concerns Echinochloa crus-galli (ECHCG). Description: Pre-emergence herbicide glasshouse test. The settings on record: 250 g/ha, sprayed after one day cultivation, evaluated after 13 days. On the procedure:
as §1

Test [4] concerns Setaria faberi (SETFA). The experiment in a line: Pre-emergence herbicide glasshouse test. The settings on record: 250 g/ha, sprayed after one day cultivation, evaluated after 13 days. On the procedure: as §1
In test [5] the test system is Ipomoea hederacea (IPOHE). The experiment in a line: Pre-emergence herbicide glasshouse test. Conditions: 250 g/ha, sprayed after one day cultivation, evaluated after 13 days. As for the experimental part:
as §1

The subject of test [6] is Abutilon theophrasti (ABUTH). The experiment in a line: Post-emergence herbicide glasshouse test. The settings on record: 250 g/ha, sprayed after 8 days cultivation, evaluated after 13 days. On the procedure: as §1
Test [7] deals with Amaranthus retoflexus (AMARE). Description: Post-emergence herbicide glasshouse test. The settings on record: 250 g/ha, sprayed after 8 days cultivation, evaluated after 13 days. As for the experimental part: as §1
The subject of test [8] is Echinochloa crus-galli (ECHCG). Description: Post-emergence herbicide glasshouse test. The settings on record: 250 g/ha, sprayed after 8 days cultivation, evaluated after 13 days. As for the experimental part:
as §1

The test system of test [9] is Setaria faberi (SETFA). The experiment in a line: Post-emergence herbicide glasshouse test. The settings on record: 250 g/ha, sprayed after 8 days cultivation, evaluated after 13 days. As for the experimental part:
as §1

Test [10] deals with Ipomoea hederacea (IPOHE). Description: Post-emergence herbicide glasshouse test. The settings on record: 250 g/ha, sprayed after 8 days cultivation, evaluated after 13 days. On the procedure:
as §1

`FC(F)(F)c1cccc(Oc2cc(C(F)(F)F)nn2-c2ncc(Cl)cn2)n1` [Compound 1.004]: the “percentage damage caused to the plant, ABUTH” value in [1] and in [6] was 4 (4=61-80%) each time. Besides, the “percentage damage caused to the plant, AMARE” value in [2] and in test [7] was 5 (5=81-100%) in each case. Besides, the “percentage damage caused to the plant, ECHCG” value in [3] is listed as 5 (5=81-100%); in test [8], 4 (4=61-80%). Also, the “percentage damage caused to the plant, SETFA” value in test [4] is listed as 5 (5=81-100%); in test [9], 4 (4=61-80%). In addition, the figures for the “percentage damage caused to the plant, IPOHE” value in test [5] and in test [10] were 2 (2=21-40%) and 3 (3=41-60%), respectively.

With `Fc1cnc(-n2nc(C(F)(F)F)cc2Oc2cccc(OC(F)F)n2)nc1` [Compound 1.005, 2-[5-[[6-(difluoromethoxy)-2-pyridyl]oxy]-3-(trifluoromethyl)pyrazol-1-yl]-5-fluoro-pyrimidine], the “percentage damage caused to the plant, ABUTH” value in test [1] is 4 (4=61-80%); in test [6], 5 (5=81-100%). The “percentage damage caused to the plant, AMARE” value in [2] and in test [7] was 5 (5=81-100%) throughout. Moreover, the “percentage damage caused to the plant, ECHCG” value is 5 (5=81-100%) in test [3] and 4 (4=61-80%) in [8]. Further, the “percentage damage caused to the plant, SETFA” value in test [4] is reported as 5 (5=81-100%); in [9] it was 4 (4=61-80%). Besides, the entries for the “percentage damage caused to the plant, IPOHE” value in [5] and in test [10] were 5 (5=81-100%) and 4 (4=61-80%), respectively.

As to `COc1ccnc(-n2nc(C(F)(F)F)cc2Oc2cccc(OC(F)F)n2)n1` [Compound 1.026], the “percentage damage caused to the plant, ABUTH” value is listed as 2 (2=21-40%) in test [1] and 1 (1=0-20%) in [6]. Besides, the “percentage damage caused to the plant, AMARE” value in [2] is recorded as 4 (4=61-80%); in test [7], 3 (3=41-60%). Also, the “percentage damage caused to the plant, ECHCG” value in test [3] and in test [8] was 1 (1=0-20%) throughout. Further, the “percentage damage caused to the plant, SETFA” value in test [4] and in [9] was 1 (1=0-20%) in each case. Besides, the “percentage damage caused to the plant, IPOHE” value in test [5] and in [10] was 1 (1=0-20%) throughout.
